Test results taken from US20240101600A1, “FIBROBLAST GROWTH FACTOR RECEPTOR (FGFR)-TARGETING ANTAGONISTIC SHORT PEPTIDE” (WENZHOU MEDICAL UNIVERSITY, priority 2019, published 2024).
Where no end group is shown, it is not given here.

Assays:
FGFR1 = FGFR1 (Homo sapiens, UniProt P11362); experiment: Western blot of FGFR1 signaling pathway in gastric cancer cells SGC-7901 and MGC-803; assay type: cell-based; parameters: endogenous in cells; host or cells: Hela229; NCI-H460; SGC-7901; MGC-803
Protocol: Cervical cancer cells Hela229, melanoma B16-F10, lung cancer cells NCI-H460, gastric cancer cells SGC-7901 and MGC-803 were inoculated into 6-well plates, respectively. After growing adherently overnight, the cells were pretreated with P48 for 10 min or with AZD4547/SSR for 2 h, and incubated with bFGF for 15 min or with KGF for 20 min.

NCI-H460 cells = experiment: MTT viability, NCI-H460 cells; assay type: cell-based; details: 48 h with bFGF
Protocol: (§1) In vitro anti-tumor activity of a short peptide compound P48 Hela229 (1500 cells/100 μl), B16-F10 (1000 cells/100 μl), NCI-H460 (4000 cells/100 μl) and SGC7901 (4000 cells/100 μl) cells were inoculated in 96-well plates. After incubated overnight adherently, the original medium was replaced with a Dulbecco's modified eagle medium (DMEM) containing 0.1% fetal bovine serum (FBS) or a Roswell Park Memorial Institute 1640 (RPMI-1640) medium containing 0.1% FBS, and culture was continued for 24 h. A mixture of P48 and bFGF, or bFGF alone were added into corresponding wells, and incubated for 48 h; an MTT solution (5 mg/mL) prepared by PBS was added to the cells in each well at 37° C., and treated for 4 h. The MTT was removed by aspiration, 150 μL of DMSO was added to each well, shaking was conducted for 10 min, and an optical density (OD) value was quantified with a microplate reader (SpectraMax M2/M2e, Molecular Devices, Sunnyvale, USA) at a wavelength of 490 nm. The percentage of drug growth inhibition rate was calculated by comparing with the bFGF group. […] The experimental procedure was as follows: 10% FBS-containing medium (500 μl) was added to a lower surface of a transwell insertion chamber, the cells together with the drug were inoculated into an upper chamber, and cultured with a serum-free medium (200 μl). […]

FGFR1B = FGFR1B (Homo sapiens, UniProt P11362); experiment: SPR detection of interaction with FGFR1B in presence of bFGF; assay type: binding
FGFR1B, sequence (P11362 22-822 isoform P11362-19 limits assumed): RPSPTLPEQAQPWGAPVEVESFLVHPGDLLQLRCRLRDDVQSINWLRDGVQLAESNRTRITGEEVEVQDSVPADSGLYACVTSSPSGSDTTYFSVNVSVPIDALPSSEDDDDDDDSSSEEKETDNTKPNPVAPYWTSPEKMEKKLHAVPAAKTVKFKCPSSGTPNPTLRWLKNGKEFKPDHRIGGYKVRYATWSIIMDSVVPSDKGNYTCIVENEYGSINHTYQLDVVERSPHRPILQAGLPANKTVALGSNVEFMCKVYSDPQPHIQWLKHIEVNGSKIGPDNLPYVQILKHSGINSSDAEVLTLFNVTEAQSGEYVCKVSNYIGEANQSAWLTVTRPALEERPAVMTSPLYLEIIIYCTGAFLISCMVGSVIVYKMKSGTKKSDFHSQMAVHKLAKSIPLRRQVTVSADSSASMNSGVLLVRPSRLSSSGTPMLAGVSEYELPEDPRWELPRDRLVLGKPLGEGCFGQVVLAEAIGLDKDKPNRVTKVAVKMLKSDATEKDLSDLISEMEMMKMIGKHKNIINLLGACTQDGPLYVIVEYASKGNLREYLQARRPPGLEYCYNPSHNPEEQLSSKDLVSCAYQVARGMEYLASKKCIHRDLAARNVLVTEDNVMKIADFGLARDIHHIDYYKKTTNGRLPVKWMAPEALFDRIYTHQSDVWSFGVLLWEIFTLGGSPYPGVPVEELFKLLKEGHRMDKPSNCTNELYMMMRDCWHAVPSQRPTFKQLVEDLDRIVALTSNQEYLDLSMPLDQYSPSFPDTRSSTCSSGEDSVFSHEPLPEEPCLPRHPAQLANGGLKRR
Protocol: Amino acid sequence of P9 degraded short peptide P48 was analyzed using Amber11 program. An initial structure of the P9 and P48 peptide chains was constructed using a sequence command in a Tleap module of the Amber11 program. Hydrogen atoms were added using the Tleap module of the Amber11 program, a […] TIP3P solvent box was added at a distance of 10 Å from the peptide chain, and counter ions were added to the two systems to keep the system electrically neutral. The system was subjected to 20-ns NPT system simulation to obtain an optimal spatial structure. […] The experimental procedure was as follows: the plasma was centrifuged and the supernatant was removed, and 60 μl of peptide was added to incubate for different lengths of time (P9 was incubated for 5, 10, 15, 20, 25, 30 and 45 min; P48 was incubated for 1, 2, 3, 4, 5, 10 and 12 h), and the incubation was terminated with 200 μl of 5% glacial acetic acid. Solid phase extraction: activation was conducted with 1.5 ml of methanol, an obtained product was washed with 1.5 ml of H2O, 400 μl of a sample was loaded, washed with 1 ml of H2O, and elution was conducted with 2 ml of 30% acetonitrile to collect samples, and the samples were freeze-dried and subjected to liquid chromatography analysis. […] The last 1 ns of trajectory obtained by molecular dynamics simulation of the system was selected to calculate the binding free energy, the molecules of the solvent of water and counter ion were deleted, and conformation was recorded every 10 ps to obtain a total of 101 structures. The binding free energy between FGF2 and FGFR1 were calculated by a molecular mechanics-generalized born surface area (MM-GBSA) method. The binding free energy and energy decomposition of amino acid residues were calculated using an MMPBA.py script provided by the Amber11. […] After bFGF and FGFR1 flew into the sensor chip, P48 (50 μM, 100 μM, 200 μM, 300 μM and 400 μM) was injected into a sensor surface, and the obtained data was analyzed using BIAevaluation software.

Hela229 cells = experiment: MTT viability, Hela229 cells; assay type: cell-based; details: 48 h with bFGF
Protocol: as §1

[1] = gastric cancer cell lines, bFGF stimulation

FGFR1, sequence (P11362 22-822): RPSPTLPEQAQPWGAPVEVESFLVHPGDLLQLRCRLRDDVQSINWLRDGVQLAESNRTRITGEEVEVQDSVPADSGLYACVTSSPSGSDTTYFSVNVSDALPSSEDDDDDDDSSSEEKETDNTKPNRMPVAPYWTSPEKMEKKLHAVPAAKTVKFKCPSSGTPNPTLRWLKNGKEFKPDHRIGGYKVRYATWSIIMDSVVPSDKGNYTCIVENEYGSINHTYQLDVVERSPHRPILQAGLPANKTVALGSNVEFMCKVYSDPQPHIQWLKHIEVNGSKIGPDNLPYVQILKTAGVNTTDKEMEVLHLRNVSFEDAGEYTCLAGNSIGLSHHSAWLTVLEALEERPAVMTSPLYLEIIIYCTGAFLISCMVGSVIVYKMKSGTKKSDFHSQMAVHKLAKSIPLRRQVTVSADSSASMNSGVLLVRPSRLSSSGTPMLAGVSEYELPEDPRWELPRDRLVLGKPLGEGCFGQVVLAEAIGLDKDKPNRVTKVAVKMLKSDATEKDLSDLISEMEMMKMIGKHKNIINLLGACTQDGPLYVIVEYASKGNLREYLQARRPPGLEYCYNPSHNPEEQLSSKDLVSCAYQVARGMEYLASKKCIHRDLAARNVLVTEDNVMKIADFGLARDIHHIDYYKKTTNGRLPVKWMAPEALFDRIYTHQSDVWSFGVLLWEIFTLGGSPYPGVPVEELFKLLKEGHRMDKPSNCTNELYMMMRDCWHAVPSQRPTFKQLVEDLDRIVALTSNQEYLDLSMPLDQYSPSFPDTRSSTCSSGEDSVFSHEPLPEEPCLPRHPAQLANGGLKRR

- effect on KGF stimulation (FGFR1; SGC-7901, KGF 20 min): has no effect
- effect on aFGF stimulation (FGFR1; SGC-7901, aFGF 15 min): has no effect
- activity on FGFR1 signaling compared with AZD4547 (FGFR1; [1]): weaker than that of AZD4547
- inhibitory effect on FGFR1 signaling compared with SSR (FGFR1; [1]): comparable to that of the SSR
- binding degree FGFR1 versus FGFR2 and FGFR3 (FGFR1B; comparison of FIG. 1F and FIG. 2): stronger than that with FGFR2 and FGFR3
Substance: SPPRYPGGGS-NH2 [P48, Ser-Pro-Pro-Arg-Tyr-Pro-Gly-Gly-Gly-Ser-NH2]
- inhibition of FGFR1 activation under bFGF stimulation (FGFR1; SGC-7901, bFGF 15 min): can only inhibit the activation of FGFR1 induced by bFGF
- inhibition of FGFR1 signaling pathway (FGFR1; gastric cancer (SGC-7901, MGC-803), bFGF stimulation): can inhibit the FGFR1 signaling pathway of cervical cancer, melanoma, lung cancer and gastric cancer in a concentration-dependent manner
- inhibition of cancer cell viability (NCI-H460 cells): can significantly inhibit the viability of cancer cells
- competitive binding to FGFR1 with bFGF (FGFR1B; P48 50-400 μM): can competitively bind to FGFR1 with basic fibroblast growth factor (bFGF)
- concentration dependence of binding force (FGFR1B; P48 50-400 μM): a higher concentration leads to a stronger binding force
- inhibition of cancer cell viability (Hela229 cells): can significantly inhibit the viability of cancer cells
